Source: US20090184062A1, “METHOD FOR INHIBITING BIOFILM GROWTH” (PPG INDUSTRIES OHIO, INC., priority 2008, published 2009)
Marks after values point to notes of the source that are not given here.

Columns and labels:
[1] = tested on: Sphaerotilus natans (ATCC 15291) biofilm; test: Biocidal effect on an existing Sphaerotilus natans biofilm in Erlenmeyer flasks (agar plate count of surviving organisms); assay type: cell-based
Protocol: In the following examples, the sheathed filamentous bacterium Sphaerotilus natans (ATCC 15291) was used. A freeze-dried sample of the bacterium was obtained from the American Type Culture Collection (ATCC, Rockville, Md.). ATCC growth medium (CYGA #1103 broth) was prepared by dissolving (per liter of tap water): 5 grams casitone (pancreatic digest of casein, Difco #225930), which is available from Voight Global Distributions, Inc., Lawrence, Kans.; 10 grams of glycerol; and 1 gram of yeast extract. The growth medium was sterilized at 120° C. for 15 minutes. The sample of Sphaerotilus natans obtained from ATCC was cultured in the CYGA growth medium and transferred to agar plates prepared from CYGA medium plus 1.5 weight percent agar. The agar plates were incubated at 30° C. The bacterium from these agar plates was transferred (subcultured) every few weeks to fresh agar plates to maintain the viability of the microorganism.
3-chloro-4,4-dimethyl-2-oxazolidinone (DMO-Cl) reagent was prepared by manually mixing a selected amount of 4,4-dimethyl-2-oxazolidinone (DMO) and a hypochlorite-containing stock solution in an Erlenmeyer flask, and allowing the mixture to stand for 8-10 hours at room temperature (about 23° C.) prior to use in the experiments. The hypochlorite-containing stock solution was prepared by dissolving calcium hypochlorite in deionized water in an Erlenmeyer flask. The amount of calcium hypochlorite used provided a hypochlorite concentration of approximately 1000 mg/L. The DMO used was Sustains Summer Shield (approximately 17.5 wt. % DMO, density of 1.14 g/mL), which is available from PPG Industries, Inc. The mixture was diluted to the desired concentration with sterile tap water before use in the experiments. Sterile tap water used in the experiments was prepared by autoclaving tap water at 120° C. for 15 minutes. The sterile tap water contained no measurable level of chlorine.
A loop full of Sphaerotilus natans (S. Natans) from an Agar plate containing the S. Natans culture was inoculated in 150 mL of CYGA #1103 growth medium and agitated in a temperature-controlled shaker at 30° C. and 150 rpm for 20 hours to prepare a pre-culture. Five (5) mL of this pre-culture were inoculated into each of a series of 250 mL Erlenmeyer flasks containing 150 mL of CYGA growth medium for batch cultivation of the S. Natans. The bacterium were cultivated at 30° C. for 96 hours on a rotary shaker at 150 rpm. At these conditions, a biofilm layer approximately 2-3 mm high formed on the inside wall of each of the Erlenmeyer flasks near the liquid surface. Approximately 50 to 75 percent of the liquid growth medium in the flasks was carefully decanted, leaving the biofilm layer intact. The decanted liquid growth medium was discarded.
For the control, sterile tap water was added to an Erlenmeyer flask. In other tests (as shown in Table I), various levels of hypochlorous acid (HOCl) or 3-chloro-4,4-dimethyl-2-oxazolidinone (DMO-Cl) were added to an Erlenmeyer flask. The amount of tap water used was approximately equal to the volume of decanted growth medium. The flasks were placed on a temperature controlled rotary shaker (30° C., 150 rpm) for 60 minutes. Total chlorine and free chlorine levels in the liquid medium in the flasks were measured at the beginning and at the end of the 60 minute contact time. At the end of the 60 minute contact time, the biofilm ring was carefully scraped from the flask surface and added to the liquid medium in the flask to ensure that the liquid medium contained the entire biofilm population for enumeration. The liquid in the flask was vigorously agitated to uniformly disperse the organisms. The liquid in the flask was sampled and serially diluted in sterile tap water for agar plating to enumerate the surviving organisms. Agar plating was performed in duplicate and the number of microorganism colonies counted after 48 hours of growth at approximately 30° C. […]

[2] = Total and free chlorine levels in the liquid medium at the end of the contact time (Hach DPD test kit); assay type: physicochemical; settings: for End FC (free chlorine after one hour) / End TC (total chlorine after one hour): Table I, after 60 min with biofilm, expressed as mg/L Cl2; for End FC (free chlorine at end) / End TC (total chlorine at end): Table II, 30 min contact, as Cl2
Protocol: For the control, sterile tap water was added to an Erlenmeyer flask. In other tests (as shown in Table I), various levels of hypochlorous acid (HOCl) or 3-chloro-4,4-dimethyl-2-oxazolidinone (DMO-Cl) were added to an Erlenmeyer flask. The amount of tap water used was approximately equal to the volume of decanted growth medium. The flasks were placed on a temperature controlled rotary shaker (30° C., 150 rpm) for 60 minutes. Total chlorine and free chlorine levels in the liquid medium in the flasks were measured at the beginning and at the end of the 60 minute contact time. At the end of the 60 minute contact time, the biofilm ring was carefully scraped from the flask surface and added to the liquid medium in the flask to ensure that the liquid medium contained the entire biofilm population for enumeration. The liquid in the flask was vigorously agitated to uniformly disperse the organisms. The liquid in the flask was sampled and serially diluted in sterile tap water for agar plating to enumerate the surviving organisms. Agar plating was performed in duplicate and the number of microorganism colonies counted after 48 hours of growth at approximately 30° C.
The procedure of Example 1 was followed except that the concentration of DMO-Cl was varied from 15 μL/L to 60 μL/L, and the contact time was 30 minutes to allow a better opportunity for survival and detection of the S. Natans microorganism. Symbols and footnotes used in Table II that are the same as those found in Table I have the same meaning.

[3] = Table I, 60 min contact, initial total chlorine 5.4 mg/L (DMO-Cl prepared with 50 μL/L Sustain Summer Shield), average of duplicates
[4] = Table I, 60 min contact, initial total chlorine about 1 mg/L (HOCl 1.1; DMO-Cl 1.04, prepared with 50 μL/L Sustain Summer Shield, approx. 10 mg/L DMO), average of duplicates
[5] = initial total chlorine 5.4 mg/L
[6] = initial total chlorine about 1 mg/L (HOCl 1.1; DMO-Cl 1.04)
[7] = HOCl, initial total chlorine 1.1 mg/L
[8] = DMO-Cl prepared with 15 μL/L Sustain Summer Shield, initial total chlorine 1.2 mg/L
[9] = DMO-Cl prepared with 30 μL/L Sustain Summer Shield, initial total chlorine 1.18 mg/L
[10] = DMO-Cl prepared with 60 μL/L Sustain Summer Shield, initial total chlorine 1.19 mg/L

End FC (free chlorine at end) [2, 7] [mg/L] | End TC (total chlorine at end) [2, 7] [mg/L] | Structure (SMILES) | Final Cell Count [1, 3] [cfu/mL] | Final Cell Count [1, 4] | Final Cell Count ([1]; Table II, 30 min contact, HOCl, initial total chlorine 1.1 mg/L) | End FC (free chlorine after one hour) [2, 5] [mg/L] | End TC (total chlorine after one hour) [2, 5] [mg/L] | End FC (free chlorine after one hour) [2, 6] [mg/L] | End TC (total chlorine after one hour) [2, 6] [mg/L] | control of biofilm in words ([1]; between 50 and 60 μL/L of DMO with a source of free available chlorine, contact times between 30 and 60 minutes) | Final Cell Count ([1]; Table II, 30 min contact, DMO-Cl prepared with 15 μL/L Sustain Summer Shield (approx. 3 mg/L DMO), initial total chlorine 1.2 mg/L) | Final Cell Count ([1]; Table II, 30 min contact, DMO-Cl prepared with 30 μL/L Sustain Summer Shield (approx. 6 mg/L DMO), initial total chlorine 1.18 mg/L) | Final Cell Count ([1]; Table II, 30 min contact, DMO-Cl prepared with 60 μL/L Sustain Summer Shield (approx. 12 mg/L DMO), initial total chlorine 1.19 mg/L) [cfu/mL] | reduction in viable cell numbers ([1]; existing S. Natans biofilm, 60 minutes contact time (Table I)) [log] | End FC (free chlorine at end) [2, 8] [mg/L] | End TC (total chlorine at end) [2, 8] [mg/L] | End FC (free chlorine at end) [2, 9] [mg/L] | End TC (total chlorine at end) [2, 9] [mg/L] | End FC (free chlorine at end) [2, 10] [mg/L] | End TC (total chlorine at end) [2, 10] [mg/L]
0.1 | 0.31 | OCl [HOCl, Hypochlorous Acid, reference compound] | 0 | 1.9 × 10^4 cfu/mL | 2.3 × 10^4 cfu/mL | 1.6 | 3.1 | 0 | 0.3 |  |  |  |  |  |  |  |  |  |  | 
 |  | CC1(C)COC(=O)N1 [DMO, 4,4-dimethyl-2-oxazolidinone] |  |  |  |  |  |  |  | complete control |  |  |  |  |  |  |  |  |  | 
 |  | CC1(C)COC(=O)N1Cl [DMO-Cl, 3-chloro-4,4-dimethyl-2-oxazolidinone] | 0 | 25^a cfu/mL |  | 0.2 | 4.7 | 0.1 | 0.4 |  | 2.1 × 10^4 cfu/mL | 1.6 × 10^4 cfu/mL | 0 | ≥ 3 | 0.05 | 0.52 | 0.07 | 0.47 | 0 | 0.41
